Data published in patent US7105652B2, “Human tumor suppressor gene” (Garvan Institute of Medical Research, priority 1997, dated 2006).
“Also recorded” adds a separate entry of the source. Numbered stars: 1 amine (or outer) side, 2 acyl side, 3 side chain; on linkers, the order of the positions; unused ones are H or OH. Bridge positions count the residues as written; N and C are the ends. Square brackets hold non-standard residues; d marks the D form. Peptide text beside a SMILES is read from it. I, II: the chains in the order shown. Actinocin(9to1) = Cc1c2oc3c(C)ccc(C(=O)[*:1])c3nc-2c(C(=O)[*:2])c(N)c1=O; NMeV = CN[C@H](C(=O)O)C(C)C; Sar = CNCC(=O)O

How the values were obtained:
T-47D cells = settings: ORG 2058, same conditions, reference (3); cited from earlier work
EDD = test: Differential display RT-PCR of T-47D cells treated with ORG 2058; format: cell-based, human; settings: ORG 2058 for 3 h
Description: (§1) The sources and maintenance of the human breast cancer and normal cell lines used were as described previously (12, 22), as were tissue culture experiments (12). Briefly, progestin (ORG 2058, 10 nM) and/or cycloheximide (20 μg/ml) or actinomycin D (5 μg/ml) was added to the medium and control flasks received the same volume of vehicle alone. To obtain RNA for differential display, cells were grown in insulin-supplemented serum-free medium and treated for 3 h with ORG 2058 or ethanol vehicle. Subsequent progestin stimulation experiments were carried out in medium containing 5% charcoal-stripped fetal calf serum without insulin.
Differential display was carried out as previously described (11) using a Heiroglyph mRNA Profile Kit No. 1 (Genomyx Corporation, Foster City, Calif.) and recommended protocol. First strand cDNA synthesis was carried out in 96-well format 0.2 ml thin walled tubes. Typically 200 ng total RNA from T-47D cells treated with the synthetic progestin ORG 2058 for 3 h or from control T-47D cells was reverse transcribed with Expand Reverse Transcriptase enzyme (Boehringer Mannheim Pty Ltd, Castle Hill, Australia) following annealing with 4 pmol anchored primer (5′[…]12AC (SEQ ID NO:6)). […] The PCR products were denatured and separated on a 4.5% denaturing polyacrylamide gel at 800 v for 16 h using the Genomyx Long Read Sequencing System reagents and apparatus. […]

EDD mRNA = test: Northern analysis of EDD mRNA in progestin-treated T-47D cells; format: cell-based, human
Description: as §1
Cells harvested from duplicate 150 cm^2 flasks were pooled, RNA extracted by a guanidinium-isothiocyanate-cesium chloride procedure and Northern analysis was performed as previously described with 20 μg of total RNA per lane (3, 23). The membranes were hybridized overnight (50° C.) with probes labelled with [a-^32P]dCTP (Amersham Australia Pty Ltd) using a Prime-a-Gene labelling kit (Promega Corp., Sydney, Australia). The membranes were washed at a highest stringency of 0.2 ¥ SSC (30 mM NaCl, 3 minN sodium citrate [pH 7.0])/1% sodium dodecyl sulfate at 65° C. and exposed to Kodak X-OMAT or BIOMAX film at −70° C. Human multiple tissue Northern blots or RNA Master blot (CLONTECH Laboratories Inc., Palo Alto, Calif.) were hybridized under conditions recommended by the manufacturer. The MRNA abundance was quantitated by densitometric analysis of autoradiographs using Molecular
Dynamics Densitometer and software (Molecular Dynamics, Sunnyvale, Calif.). The accuracy of loading was estimated by re-hybridizing membranes with a [g-^32P]ATP end-labelled oligonucleotide complementary to 18S rRNA (24, 25).

[1] = biological target: T1, GST-ubiquitin fusion protein (Homo sapiens, UniProt P0CG47); test: Ubiquitin-binding assay (thiol ester formation); format: biochemical; settings: in vitro translated 35S-labelled protein, absence of DTT; abolished by 100 mM DTT
T1 construct: purified GST-ubiquitin fusion protein
Description: [^35S]-labelled in vitro translated truncated (˜100 kDa) or full length protein was tested for its ability to bind ubiquitin by incubating 5 μl translation reaction with or without 5 μg purified GST protein or GST-ubiquitin fusion protein for 10 min at 25° C. […] Reactions were terminated by incubating the mixtures in either SDS-sample buffer containing 100 mM DTT at 95° C. for 5 min or in SDS-sample buffer containing 4 M urea instead of DTT at 25° C. for 20 min. Samples were resolved by SDS-PAGE through 6% or 7% gels followed by drying and autoradiography.

CCC1CC2C3CCC4=CC(=O)CCC4C3CCC2(C)C1C(=O)CO (stereo not drawn) [ORG 2058, 16a-ethyl-21-hydroxy-19-norpregn-4-en-3,20-dione]
time of increase in the S phase fraction (T-47D cells): 12 to 14 h
abundance of EDD DD-PCR product, treated versus control (EDD): more abundant in treated samples than in control samples; also recorded: present at a higher level
maximal EDD mRNA levels above control (EDD mRNA; progestin (ORG 2058), observed at 6 h, transient): 3 to 4 fold

Cc1c2oc3c(C)ccc(C(=O)N[C@@H]4C(=O)N[C@H](C(C)C)C(=O)N5CCC[C@H]5C(=O)N(C)CC(=O)N(C)[C@@H](C(C)C)C(=O)O[C@@H]4C)c3nc-2c(C(=O)N[C@@H]2C(=O)N[C@H](C(C)C)C(=O)N3CCC[C@H]3C(=O)N(C)CC(=O)N(C)[C@@H](C(C)C)C(=O)O[C@@H]2C)c(N)c1=O [actinomycin D, Actinomycin D] (I: T[dV]P[Sar][NMeV] / II: T[dV]P[Sar][NMeV]; ester I:1-I:C, II:1-II:C; linker I:N-II:N via Actinocin(9to1))
effect on ORG 2058 induction of EDD mRNA levels (EDD mRNA; 10 nM ORG 2058 with actinomycin D (5 μg/ml), 3 h): blocked

C[C@@H]1C[C@@H]([C@H](O)CC2CC(=O)NC(=O)C2)C(=O)[C@@H](C)C1 [cycloheximide, Cycloheximide]
effect on ORG 2058 induction of EDD mRNA levels (EDD mRNA; 10 nM ORG 2058 with cycloheximide (20 μg/ml), 1 h): prevented

B1: truncated EDD: 890 amino acid truncated EDD protein, aa 1910 to aa 2799, carboxyl terminus with HECT domain (protein)
chain: MMSARGDFLNYALSLMRSHNDEHSDVLPVLDVCSLKHVAYVFQALIYWIKAMNQQTTLDTPQLERKRTRELLELGIDNEDSEHENDDDTNQSATLNDKDDDSLPAETGQNHPFFRRSDSMTFLGCIPPNPFEVPLAEAIPLADQPHLLQPNARKEDLFGRPSQGLYSSSASSGKCLMEVTVDRNCLEVLPTKMSYAANLKNVMNMQNRQKKEGEEQPVLPEETESSKPGPSAHDLAAQLKSSLLAEIGLTESEGPPLTSFRPQCSFMGMVISHDMLLGRWRLSLELFGRVFMEDVGAEPGSILTELGGFEVKESKFRREMEKLRNQQSRDLSLEVDRDRDLLIQQTMRQLNNHFGRRCATTPMAVHRVKVTFKDEPGEGSGVARSFYTAIAQAFLSNEKLPNLECIQNANKGTHTSLMQRLRNRGERDREREREREMRRSSGLRAGSRRDRDRDFRRQLSIDTRPFRPASEGNPSDDPEPLPAHRQALGERLYPRVQAMQPAFASKITGMLLELSPAQLLLLLASEDSLRARVDEAMELIIAHGRENGADSILDLGLVDSSEKVQQENRKRHGSSRSVVDMDLDDTDDGDDNAPLFYQPGKRGFYTPRPGKNTEARLNCFRNIGRILGLCLLQNELCPITLNRHVIKVLLGRKVNWHDFAFFDPVMYESLRQLILASQSSDADAVFSAMDLAFAIDLCKEEGGGQVELIPNGVNIPVTPQNVYEYVRKYAEHRMLVVAEQPLHAMRKGLLDVLPKNSLEDLTAEDFRLLVNGCGEVNVQMLISFTSFNDESGENAEKLLQFKRWFWSIVEKMSMTERQDLVYFWTSSPSLPASEEGFQPMPSITIRPPDDQHLPTANTCISRLYVPLYSSKQILKQKLLLAIKTKNFGFV
formation of GST-ubiquitin / ubiquitin thioester conjugate [1]: an additional higher molecular mass protein band was observed
